Data reported in ChEMBL document CHEMBL4251621, “Design, synthesis and QSAR study of novel isatin analogues inspired Michael acceptor as potential anticancer compounds” (Eur J Med Chem, 2018).
The source made the active and inactive calls. The calls are words filed in the database; no cut-off is given here.

Assays:
NCI-H460 [1] = experiment: Anti-growth activity against human NCI-H460 cells assessed as reduction in colony formation at 10 uM after 48 hrs by crystal violet-based colony forming assay; assay type: functional, cell-based
SGC-7901 = experiment: Cytotoxicity against human SGC7901 cells assessed as cell growth inhibition after 72 hrs by MTT assay; assay type: functional, cell-based; settings: SGC-7901, 72 h
NCI-H460 [2] = experiment: Anti-migratory activity against human NCI-H460 cells at 10 uM incubated for 48 hrs by wound healing assay; assay type: functional, cell-based
NCI-H460 [3] = experiment: Growth inhibition of human NCI-H460 cells assessed as reduction in cell viability at 5 to 10 uM incubated for 24 to 72 hrs by MTT assay; assay type: functional, cell-based
BGC-823 = experiment: Cytotoxicity against human BGC823 cells assessed as cell growth inhibition after 72 hrs by MTT assay; assay type: functional, cell-based; settings: BGC-823, 72 h
NCI-H460 [4] = experiment: Cytotoxicity against human NCI-H460 cells assessed as cell growth inhibition after 72 hrs by MTT assay; assay type: functional, cell-based; settings: NCI-H460, 72 h
NCI-H460 [5] = experiment: Induction of apoptosis in tumor of human NCI-H460 cells xenografted in BALB/C nu nude mouse assessed as downregulation of bcl2 expression at 15 mg/kg, ip administered everyday for 15 days by Western blot analysis; assay type: functional, organism-based
NCI-H460 [6] = experiment: Antitumor activity against human NCI-H460 cells xenografted in BALB/C-nu nude mouse assessed as reduction in tumor growth at 15 mg/kg, ip administered every day for 15 days; assay type: functional, organism-based
NCI-H460 [7] = experiment: Cell cycle arrest in human NCI-H460 cells assessed as accumulation at G2/M phase at 5 to 20 uM after 48 hrs by propidium iodide staining-based flow cytometry; assay type: functional
Mus musculus [8] = experiment: Toxicity in BALB/C nu nude mouse xenografted with human NCI-H460 cells assessed as histopathological changes in lung at 15 mg/kg, ip administered everyday for 15 days by hematoxylin and eosin staining based light microscopic analysis; assay type: organism-based; settings: in vivo, 360 h
NCI-H460 [9] = experiment: Anti-growth activity against human NCI-H460 cells assessed as reduction in colony formation after 18 hrs by crystal violet-based colony forming assay; assay type: functional, cell-based
Mus musculus [10] = experiment: Toxicity in BALB/C nu nude mouse xenografted with human NCI-H460 cells assessed as histopathological changes in liver at 15 mg/kg, ip administered everyday for 15 days by hematoxylin and eosin staining based light microscopic analysis; assay type: organism-based; settings: in vivo, 360 h
Mus musculus [11] = experiment: Toxicity in BALB/C nu nude mouse xenografted with human NCI-H460 cells assessed as induction of abnormal behavior at 15 mg/kg, ip administered everyday for 15 days; assay type: organism-based; settings: in vivo, 360 h
NCI-H460 [12] = experiment: Anti-migratory activity against human NCI-H460 cells incubated for 48 hrs by wound healing assay; assay type: functional, cell-based
Mus musculus [13] = experiment: Toxicity in BALB/C nu nude mouse xenografted with human NCI-H460 cells assessed as weight loss at 15 mg/kg, ip administered everyday for 15 days measured every 2 days; assay type: organism-based; settings: in vivo
NCI-H460 [14] = experiment: Anti-growth activity against human NCI-H460 cells assessed as reduction in colony formation at 20 uM after 18 hrs by crystal violet-based colony forming assay; assay type: functional, cell-based
NCI-H460 [15] = experiment: Anti-migratory activity against human NCI-H460 cells at 20 uM incubated for 48 hrs by wound healing assay; assay type: functional, cell-based

COc1cc(O)c(CC=C(C)C)c(O)c1C(=O)/C=C/c1ccc(O)cc1 [XANTHOHUMOL]
Activity (NCI-H460 [1]): Active
IC50 (SGC-7901): 10 µM
Activity (NCI-H460 [2]): Active
growth inhibition (GI) (NCI-H460 [3]): Active
IC50 (BGC-823): 7.8 µM
IC50 (NCI-H460 [4]): 6.9 µM

O=C1Nc2ccccc2/C1=C\C(=O)c1ccc([N+](=O)[O-])cc1
IC50 (SGC-7901): 18.2 µM
IC50 (BGC-823): 14.3 µM
IC50 (NCI-H460 [4]): 18.4 µM

O=C1Nc2ccccc2/C1=C\C(=O)c1ccc(Cl)cc1
IC50 (SGC-7901): 8.5 µM
IC50 (BGC-823): 6.9 µM
IC50 (NCI-H460 [4]): 6.5 µM

COc1ccc(C(=O)/C=C2/C(=O)Nc3ccccc32)c(OC)c1
IC50 (SGC-7901): 11.5 µM
IC50 (BGC-823): 9.2 µM
IC50 (NCI-H460 [4]): 5.4 µM

Nc1cccc(C(=O)/C=C2/C(=O)Nc3ccccc32)c1
IC50 (SGC-7901): 14.4 µM
IC50 (BGC-823): 29.9 µM
IC50 (NCI-H460 [4]): 20.4 µM

CCC(=O)Nc1cccc(C(=O)/C=C2/C(=O)Nc3ccccc32)c1
IC50 (SGC-7901): 11.5 µM
IC50 (BGC-823): 7.5 µM
IC50 (NCI-H460 [4]): 10.3 µM

COc1ccc(C(=O)/C=C2/C(=O)Nc3ccccc32)cc1
IC50 (SGC-7901): 23.2 µM
IC50 (BGC-823): 19.8 µM
IC50 (NCI-H460 [4]): 5.5 µM

O=C1Nc2ccccc2/C1=C\C(=O)c1cccc(Cl)c1
IC50 (SGC-7901): 8.4 µM
IC50 (BGC-823): 7.7 µM
IC50 (NCI-H460 [4]): 9.8 µM

O=C1Nc2ccccc2/C1=C\C(=O)c1ccccc1Cl
IC50 (SGC-7901): 12.8 µM
IC50 (BGC-823): 9.1 µM
IC50 (NCI-H460 [4]): 7.7 µM

Nc1c(Cl)cc(C(=O)/C=C2/C(=O)Nc3ccccc32)cc1Cl
IC50 (SGC-7901): 11.9 µM
IC50 (BGC-823): 8.5 µM
IC50 (NCI-H460 [4]): 6.2 µM

CC(C)C(=O)Nc1cccc(C(=O)/C=C2/C(=O)Nc3ccccc32)c1
IC50 (SGC-7901): 8.6 µM
IC50 (BGC-823): 6.2 µM
IC50 (NCI-H460 [4]): 9.7 µM

O=C1Nc2ccccc2/C1=C\C(=O)c1ccc(Cl)c(Cl)c1
IC50 (SGC-7901): 17.8 µM
IC50 (BGC-823): 13.2 µM
IC50 (NCI-H460 [4]): 13.7 µM

C=CC(=O)Nc1cccc(C(=O)/C=C2/C(=O)Nc3ccccc32)c1
Activity (NCI-H460 [5]): Active
TGI (NCI-H460 [6]): Active
Activity (NCI-H460 [7]): Active
IC50 (SGC-7901): 5.7 µM
Activity (NCI-H460 [3]): Dose-dependent effect
growth inhibition (GI) (NCI-H460 [3]; TDE = time-dependent effect): Tde
Activity (Mus musculus [8]): Non-Toxic
Activity (NCI-H460 [9]): Dose-dependent effect
Activity (Mus musculus [10]): Non-Toxic
Activity (Mus musculus [11]): Non-Toxic
IC50 (BGC-823): 3.6 µM
Activity (NCI-H460 [12]): Dose-dependent effect
Activity (Mus musculus [13]): Non-Toxic
IC50 (NCI-H460 [4]): 3.2 µM

O=C1Nc2ccccc2/C1=C\C(=O)c1cc(Cl)ccc1Cl
IC50 (SGC-7901): 56.3 µM
IC50 (BGC-823): 53.7 µM
IC50 (NCI-H460 [4]): 61.6 µM

COc1cc(/C=C/C(=O)CC(=O)/C=C/c2ccc(O)c(OC)c2)ccc1O [CURCUMIN]
Activity (NCI-H460 [5]): Active
IC50 (SGC-7901): 26.2 µM
growth inhibition (GI) (NCI-H460 [3]): Active
Activity (Mus musculus [8]): Non-Toxic
Activity (Mus musculus [10]): Non-Toxic
IC50 (BGC-823): 19.5 µM
Activity (NCI-H460 [14]): Active
Activity (NCI-H460 [15]): Active

COc1cc(C(=O)/C=C2/C(=O)Nc3ccccc32)cc(OC)c1OC
IC50 (SGC-7901): 18.3 µM
IC50 (BGC-823): 13.9 µM
IC50 (NCI-H460 [4]): 10.9 µM

O=C1Nc2ccccc2/C1=C\C(=O)c1ccccc1
IC50 (SGC-7901): 9.3 µM
IC50 (BGC-823): 13.2 µM
IC50 (NCI-H460 [4]): 10.4 µM

O=C1Nc2ccccc2/C1=C\C(=O)c1cc(F)cc(F)c1
IC50 (SGC-7901): 17.6 µM
IC50 (BGC-823): 15.7 µM
IC50 (NCI-H460 [4]): 13.3 µM

O=C1Nc2ccccc2/C1=C\C(=O)c1ccccc1Br
IC50 (SGC-7901): 13.1 µM
IC50 (BGC-823): 9.5 µM
IC50 (NCI-H460 [4]): 11 µM

O=C1Nc2ccccc2/C1=C\C(=O)c1ccc(F)cc1
IC50 (SGC-7901): 12.4 µM
IC50 (BGC-823): 11.1 µM
IC50 (NCI-H460 [4]): 7.5 µM

COc1ccccc1C(=O)/C=C1/C(=O)Nc2ccccc21
IC50 (SGC-7901): 16.3 µM
IC50 (BGC-823): 10.2 µM
IC50 (NCI-H460 [4]): 10.2 µM

O=C1Nc2ccccc2/C1=C\C(=O)c1ccccc1F
IC50 (SGC-7901): 17.4 µM
IC50 (BGC-823): 11.8 µM
IC50 (NCI-H460 [4]): 8.5 µM

CC(=O)Nc1cccc(C(=O)/C=C2/C(=O)Nc3ccccc32)c1
IC50 (SGC-7901): 14.1 µM
IC50 (BGC-823): 9.1 µM
IC50 (NCI-H460 [4]): 12.3 µM

O=C1Nc2ccccc2/C1=C\C(=O)c1ccc(Br)cc1
IC50 (SGC-7901): 10.2 µM
IC50 (BGC-823): 9 µM
IC50 (NCI-H460 [4]): 11.5 µM
